How the values were obtained:
Experiment in all cases: KINOMEscan (ScanMAX) kinase profiling
Type in all cases: binding
panel of 468 kinases [1] = target: T1, panel of 468 kinases (Homo sapiens, UniProt O15146); conditions: MUSK; 1 μM; read-out: % control
T1 construct: purchased KINOMEscan (ScanMAX) service
T1 sequence (O15146 24-869): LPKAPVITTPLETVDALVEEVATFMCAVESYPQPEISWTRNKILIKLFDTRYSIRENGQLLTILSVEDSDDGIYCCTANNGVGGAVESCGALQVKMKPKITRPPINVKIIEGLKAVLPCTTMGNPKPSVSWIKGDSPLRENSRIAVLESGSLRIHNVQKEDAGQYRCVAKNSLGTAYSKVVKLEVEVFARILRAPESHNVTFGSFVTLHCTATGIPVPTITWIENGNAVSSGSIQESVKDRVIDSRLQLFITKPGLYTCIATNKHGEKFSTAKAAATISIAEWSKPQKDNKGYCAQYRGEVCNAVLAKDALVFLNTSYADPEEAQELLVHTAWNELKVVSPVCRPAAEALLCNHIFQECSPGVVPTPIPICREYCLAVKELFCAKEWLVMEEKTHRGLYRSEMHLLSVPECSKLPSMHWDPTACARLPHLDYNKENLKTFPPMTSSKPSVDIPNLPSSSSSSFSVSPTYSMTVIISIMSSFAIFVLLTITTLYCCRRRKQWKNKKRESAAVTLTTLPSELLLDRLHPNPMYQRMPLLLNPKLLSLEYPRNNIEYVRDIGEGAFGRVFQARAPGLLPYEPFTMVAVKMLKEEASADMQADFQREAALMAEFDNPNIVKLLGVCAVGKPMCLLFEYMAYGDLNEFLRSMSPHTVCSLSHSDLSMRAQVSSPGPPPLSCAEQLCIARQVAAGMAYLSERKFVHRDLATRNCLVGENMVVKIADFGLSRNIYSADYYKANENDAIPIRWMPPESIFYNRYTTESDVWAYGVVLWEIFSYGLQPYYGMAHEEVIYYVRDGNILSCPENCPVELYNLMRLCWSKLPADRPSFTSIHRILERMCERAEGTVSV

panel of 468 kinases [2] = target: T2, panel of 468 kinases (Homo sapiens, UniProt O95382); conditions: ASK2; 1 μM; read-out: % control
T2 construct: purchased KINOMEscan (ScanMAX) service
T2 sequence (O95382 1-1288): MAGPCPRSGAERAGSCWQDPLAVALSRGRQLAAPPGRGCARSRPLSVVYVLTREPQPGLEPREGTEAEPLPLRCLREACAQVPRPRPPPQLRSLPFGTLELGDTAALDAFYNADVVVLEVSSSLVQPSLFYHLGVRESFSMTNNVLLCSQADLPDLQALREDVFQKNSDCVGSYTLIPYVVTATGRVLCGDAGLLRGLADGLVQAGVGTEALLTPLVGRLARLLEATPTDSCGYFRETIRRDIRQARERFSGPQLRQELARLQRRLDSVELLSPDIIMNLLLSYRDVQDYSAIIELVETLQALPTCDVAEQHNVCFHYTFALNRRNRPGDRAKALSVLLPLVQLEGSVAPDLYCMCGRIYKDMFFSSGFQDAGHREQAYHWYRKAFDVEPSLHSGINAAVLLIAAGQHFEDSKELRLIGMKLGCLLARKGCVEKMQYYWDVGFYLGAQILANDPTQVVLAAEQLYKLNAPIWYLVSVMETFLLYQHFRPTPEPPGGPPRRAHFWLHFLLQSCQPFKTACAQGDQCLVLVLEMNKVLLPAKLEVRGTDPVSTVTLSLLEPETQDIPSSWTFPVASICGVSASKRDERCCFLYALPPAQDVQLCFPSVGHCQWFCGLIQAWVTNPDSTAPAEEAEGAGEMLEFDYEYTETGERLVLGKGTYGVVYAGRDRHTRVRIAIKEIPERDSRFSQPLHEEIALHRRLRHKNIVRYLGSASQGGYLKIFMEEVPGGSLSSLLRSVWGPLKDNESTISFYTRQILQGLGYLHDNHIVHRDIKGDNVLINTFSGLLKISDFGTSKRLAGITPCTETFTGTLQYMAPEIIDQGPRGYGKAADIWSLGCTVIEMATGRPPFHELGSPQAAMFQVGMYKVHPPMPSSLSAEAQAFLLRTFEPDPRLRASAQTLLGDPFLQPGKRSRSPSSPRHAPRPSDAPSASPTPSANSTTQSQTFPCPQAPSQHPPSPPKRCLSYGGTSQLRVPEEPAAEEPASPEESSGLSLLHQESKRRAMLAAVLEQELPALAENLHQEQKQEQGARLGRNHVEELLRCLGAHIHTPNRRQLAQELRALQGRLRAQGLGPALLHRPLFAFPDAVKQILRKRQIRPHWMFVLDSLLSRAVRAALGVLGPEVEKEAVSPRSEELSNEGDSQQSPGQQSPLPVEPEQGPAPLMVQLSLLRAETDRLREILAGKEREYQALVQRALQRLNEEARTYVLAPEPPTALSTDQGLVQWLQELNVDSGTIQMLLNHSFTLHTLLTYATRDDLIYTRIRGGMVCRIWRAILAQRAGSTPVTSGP

panel of 468 kinases [3] = target: T3, panel of 468 kinases (Homo sapiens, UniProt P53671); conditions: LIMK2; 1 μM; read-out: % control
T3 construct: purchased KINOMEscan (ScanMAX) service
T3 sequence (P53671 whole entry): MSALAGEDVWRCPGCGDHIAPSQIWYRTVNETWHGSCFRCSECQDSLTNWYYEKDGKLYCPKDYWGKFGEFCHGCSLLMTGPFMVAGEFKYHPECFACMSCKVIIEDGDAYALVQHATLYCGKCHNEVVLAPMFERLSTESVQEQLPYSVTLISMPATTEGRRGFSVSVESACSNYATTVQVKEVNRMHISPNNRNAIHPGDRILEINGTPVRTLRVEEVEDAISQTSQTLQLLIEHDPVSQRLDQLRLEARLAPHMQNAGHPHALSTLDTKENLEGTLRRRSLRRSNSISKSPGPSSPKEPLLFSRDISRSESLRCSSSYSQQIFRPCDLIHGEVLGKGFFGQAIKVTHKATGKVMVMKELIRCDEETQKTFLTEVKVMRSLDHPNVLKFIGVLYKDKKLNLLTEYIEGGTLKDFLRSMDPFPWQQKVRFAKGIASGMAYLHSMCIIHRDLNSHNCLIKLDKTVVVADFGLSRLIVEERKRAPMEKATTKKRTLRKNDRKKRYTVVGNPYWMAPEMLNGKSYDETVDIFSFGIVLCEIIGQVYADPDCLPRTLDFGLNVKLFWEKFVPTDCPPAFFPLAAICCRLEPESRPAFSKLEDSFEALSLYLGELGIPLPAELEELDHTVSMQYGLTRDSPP

panel of 468 kinases [4] = target: T4, panel of 468 kinases (Homo sapiens, UniProt P57059); conditions: SIK; 1 μM; read-out: % control
T4 construct: purchased KINOMEscan (ScanMAX) service
T4 sequence (P57059 whole entry): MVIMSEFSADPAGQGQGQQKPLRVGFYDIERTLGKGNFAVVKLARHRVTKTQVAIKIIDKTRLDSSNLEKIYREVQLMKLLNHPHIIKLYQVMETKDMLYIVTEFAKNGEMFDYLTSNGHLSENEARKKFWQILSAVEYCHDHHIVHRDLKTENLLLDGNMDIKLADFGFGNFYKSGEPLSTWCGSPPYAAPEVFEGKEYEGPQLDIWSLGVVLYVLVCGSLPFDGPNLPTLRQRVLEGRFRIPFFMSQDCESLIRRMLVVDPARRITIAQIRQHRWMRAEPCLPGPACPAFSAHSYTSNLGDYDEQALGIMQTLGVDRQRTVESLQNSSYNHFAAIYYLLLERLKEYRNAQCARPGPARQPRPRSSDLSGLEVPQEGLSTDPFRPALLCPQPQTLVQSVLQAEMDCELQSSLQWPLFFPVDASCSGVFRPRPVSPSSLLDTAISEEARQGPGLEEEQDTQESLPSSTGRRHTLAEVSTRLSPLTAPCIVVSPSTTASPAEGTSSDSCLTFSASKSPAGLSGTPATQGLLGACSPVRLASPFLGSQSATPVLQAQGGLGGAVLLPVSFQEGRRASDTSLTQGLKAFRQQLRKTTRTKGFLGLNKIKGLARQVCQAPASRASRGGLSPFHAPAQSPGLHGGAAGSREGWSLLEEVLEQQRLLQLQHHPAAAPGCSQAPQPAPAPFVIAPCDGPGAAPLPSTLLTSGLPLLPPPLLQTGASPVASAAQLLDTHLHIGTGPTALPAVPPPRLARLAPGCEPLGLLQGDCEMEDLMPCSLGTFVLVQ

panel of 468 kinases [5] = target: T5, panel of 468 kinases (Homo sapiens, UniProt Q9NSY1); conditions: BIKE; 1 μM; read-out: % control
T5 construct: purchased KINOMEscan (ScanMAX) service
T5 sequence (Q9NSY1 whole entry): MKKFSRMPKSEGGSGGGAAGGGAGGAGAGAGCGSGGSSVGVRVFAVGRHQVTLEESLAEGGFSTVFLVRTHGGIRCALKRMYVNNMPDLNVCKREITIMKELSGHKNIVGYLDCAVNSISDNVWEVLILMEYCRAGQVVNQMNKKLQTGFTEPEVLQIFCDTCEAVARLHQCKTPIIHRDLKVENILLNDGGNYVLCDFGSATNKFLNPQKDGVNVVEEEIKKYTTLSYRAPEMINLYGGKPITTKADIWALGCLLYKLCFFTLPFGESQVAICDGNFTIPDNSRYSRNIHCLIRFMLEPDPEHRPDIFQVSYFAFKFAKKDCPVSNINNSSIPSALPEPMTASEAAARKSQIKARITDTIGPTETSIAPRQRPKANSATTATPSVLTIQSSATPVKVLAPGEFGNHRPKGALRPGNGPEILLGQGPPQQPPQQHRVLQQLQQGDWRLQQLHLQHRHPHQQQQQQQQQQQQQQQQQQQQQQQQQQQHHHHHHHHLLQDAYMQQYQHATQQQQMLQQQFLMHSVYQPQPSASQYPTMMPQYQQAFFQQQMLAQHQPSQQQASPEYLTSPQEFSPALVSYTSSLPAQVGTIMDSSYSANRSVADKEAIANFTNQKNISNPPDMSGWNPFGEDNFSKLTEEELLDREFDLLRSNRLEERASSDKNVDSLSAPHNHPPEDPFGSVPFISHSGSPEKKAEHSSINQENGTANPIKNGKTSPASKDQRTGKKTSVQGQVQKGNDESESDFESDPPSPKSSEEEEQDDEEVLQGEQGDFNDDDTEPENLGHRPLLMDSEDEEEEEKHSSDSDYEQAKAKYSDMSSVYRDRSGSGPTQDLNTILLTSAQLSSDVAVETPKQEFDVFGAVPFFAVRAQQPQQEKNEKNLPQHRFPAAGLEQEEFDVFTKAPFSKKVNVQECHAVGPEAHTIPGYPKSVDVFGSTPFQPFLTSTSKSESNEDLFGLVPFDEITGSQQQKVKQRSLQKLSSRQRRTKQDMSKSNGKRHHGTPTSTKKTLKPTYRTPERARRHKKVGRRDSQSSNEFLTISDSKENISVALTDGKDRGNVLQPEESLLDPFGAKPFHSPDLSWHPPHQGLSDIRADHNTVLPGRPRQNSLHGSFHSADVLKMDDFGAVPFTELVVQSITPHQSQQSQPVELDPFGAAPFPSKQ

With `CNc1nc(Nc2ccc(C(=O)N3CCC(N4CCOCC4)CC3)c3c2OCO3)nc2[nH]cc(Cl)c12` [Compound 75, (7-((5-chloro-4-(methylamino)-7H-pyrrolo[2,3-d]pyrimidin-2-yl)amino)benzo[d][1,3]dioxol-4-yl)(4-morpholinopiperidin-1-yl)methanone] the remaining binding at 1 µM (panel of 468 kinases [1]) was 21%, the remaining binding at 1 µM (panel of 468 kinases [2]) was 39% and the remaining binding at 1 µM (panel of 468 kinases [3]) was 99%. The remaining binding at 1 µM (panel of 468 kinases [4]) was 100% and the remaining binding at 1 µM (panel of 468 kinases [5]) was 40%.

`CNc1nc(Nc2ccc(S(=O)(=O)N3CCC(N4CCOCC4)CC3)cc2OC)nc2[nH]cc(Cl)c12` [Compound 12, 5-chloro-N2-(2-methoxy-4-((4-morpholinopiperidin-1-yl)sulfonyl)phenyl)-N4-methyl-7H-pyrrolo[2,3-d]pyrimidine-2,4-diamine] was tested, and the remaining binding at 1 µM (panel of 468 kinases [1]) was 98%, the remaining binding at 1 µM (panel of 468 kinases [2]) was 53% and the remaining binding at 1 µM (panel of 468 kinases [3]) was 100%. The remaining binding at 1 µM (panel of 468 kinases [4]) was 100% and the remaining binding at 1 µM (panel of 468 kinases [5]) was 96%.

Compound `CNc1nc(Nc2ccc(P3(=O)CCN(C4CCOCC4)CC3)cc2OC)nc2[nH]cc(Cl)c12` [Compound 77, 4-(4-((5-chloro-4-(methylamino)-7H-pyrrolo[2,3-d]pyrimidin-2-yl)amino)-3-methoxyphenyl)-1-(tetrahydro-2H-pyran-4-yl)-1,4-azaphosphinane 4-oxide] has a remaining binding at 1 µM (panel of 468 kinases [1]) of 72%, a remaining binding at 1 µM (panel of 468 kinases [2]) of 51% and a remaining binding at 1 µM (panel of 468 kinases [3]) of 84%. It also gave a remaining binding at 1 µM (panel of 468 kinases [4]) of 100% and a remaining binding at 1 µM (panel of 468 kinases [5]) of 91%.
